What was measured:
[1] = test system: human myeloma cell lines (HMCLs); experiment: MTT assay across 10 human myeloma cell lines, compared with receptor surface expression by flow cytometry; assay type: cell-based
Source text: Surface expression of IL-6Rα, IL-6ST and CD44 was quantified using IL-6Rα-PE (clone UV4, Biolegend), IL-6ST-APC (2E1B02, Biolegend) and CD44-BV711 (IM7, Biolegend), and compared to isotype or unstained control.

U266 [2] = experiment: BrdU cell cycle assay, U266; assay type: cell-based, human; details: U266, metformin 10 mM, 72 hours, from 35% without metformin
Protocol: (§1) Data is presented as heat map intensity corresponding to the level of expression. (B) HMCLs were treated with different doses of metformin for 72 hours and relative proliferation compared to vehicle control was calculated using MTT assay. Data is presented as IC50 for different cell lines and IC50 was calculated using Compusyn software (n=6). (C) & (D) HMCLs MM1S, RPMI, and U266 were treated with vehicle control (DMSO) or metformin 10 mM for 72 hours. (C) For apoptosis assay, cells were suspended in Annexin V buffer and stained with Annexin V for 30 minutes. Propidium iodide was added 10 minutes prior to data acquisition by flow cytometry. (D) For cell cycle assay, BrdU was added and incubated for 4 hours. […] The data were acquired on BD Fortessa and analyzed with flowjo V10.
(§2) Cell surface expression of IL-6Rα, IL-6ST, and CD44 was quantified using the fluorescently labeled antibodies anti-IL6R-PE (UV4, Biolegend), anti-IL6ST-APC (2E1B02, Biolegend) and anti-CD44-BV711 (IM7, Biolegend), and compared with isotype control. BrdU labeling assay (Phase-Flow™, Biolegend) was performed according to the manufacturer's protocol to quantify cell cycle. […] For apoptosis assay, the cells were treated with metformin for 72 hours and quantified with Annexin V (Biolegend). […] The data were analyzed using flowJo vs10.4.2 (Flowjo LLC, USA). […]

soluble IL-6Rα = details: RPMI and ANBL6, metformin 10 mM, 72 hours, ELISA
Protocol: (§3) RPMI, ANBL6, U266, MM1S, and JJN3 were treated with metformin 10 mM for 72 hours and median fluorescence intensity for cell surface expression of (A) IL-6Rα, (B) IL-6-Rβ and (C) CD44 was quantified using flow cytometry. Vehicle (open bar) and metformin 10 mM (shaded bar), n=3. (D) RPMI and ANBL6 cells were cultured either in the presence of vehicle control or metformin 10 mM for 72 hours. Soluble IL-6Rα was quantified in media supernatant using ELISA kit. Vehicle (open bar) and metformin 10 mM (shaded bar), n=6. […] (E) RPMI and ANBL6 cells were cultured either in presence of vehicle control or metformin 10 mM for 72 hours. mRNA expression of IL-6Rα was quantified using qPCR TaqMan assay. Vehicle (open bar) and metformin 10 mM (shaded bar), n=6.

primary myeloma cells = experiment: MTT assay in primary myeloma cells (CD138+ enriched); details: metformin 10 mM, 48 hours
Protocol: (A) Bone marrow aspirates were enriched for multiple myeloma cells by with magnetic associated cell sorting using CD138^+ (a marker for myeloma cells). Cells were treated with metformin 10 mM or vehicle control. After 48 hours of culture, the MTT assay was performed to determine the percentage of live cells. Data is presented as relative proliferation compared to vehicle control (n=6 per sample).
CD138^+ cells from bone marrow aspirates were enriched using magnetic associated cell sorting at the Hematology Research Core (Mayo Clinic Rochester, USA). Primary myeloma cells were maintained in RPMI supplemented with 10% FBS, antibiotics and 1 ng/mL IL-6.
(3-(4,5-Dimethylthiazol-2-5-Diphenyltetrazolium Bromide (MTT) (ThermoFisher Scientific, MA, USA) was dissolved in PBS to make 12 mM stock solution. Cells were seeded at 10,000 cells in 50 μL complete medium. Drugs, cytokines and antibodies were added at indicated doses in 50 μL complete medium. HMCLs were incubated for 72 hours while primary myeloma cells were incubated for 48 hours in presence of vehicle control, metformin (1 mM, 5 mM, 10 mM, 20 mM, 40 mM and 80 mM). MTT (10 μL) was added to each well and incubated for an additional 2 hours. Lysis buffer (100 μL) was added to each well and absorbance was read at 570 nm. […] IC50 was calculated using Compusyn software.

IL-6Rα [3] = experiment: Flow cytometry, cell surface IL-6Rα on primary myeloma cells; assay type: cell-based, human; details: metformin 10 mM, 48 hours, n=11
Protocol: (§4) Surface expression of IL-6Rα, IL-6ST and CD44 was quantified using IL-6Rα-PE (clone UV4, Biolegend), IL-6ST-APC (2E1B02, Biolegend) and CD44-BV711 (IM7, Biolegend), and compared to isotype or unstained control. BrdU labelling assay (Phase-Flow™, Biolegend) was performed according to the manufacturer's protocol to quantify cell cycle fractions. After treatment cells were labelled with BrdU for 2 hours. For apoptosis assay, cells were treated with metformin for 72 hours and quantified with Annexin V (Biolegend). All assays were quantified on LSR Fortessa.

KMS12PE = experiment: MTT assay, metformin in KMS12PE myeloma cells; assay type: cell-based; details: Homo sapiens, KMS-12-PE, 72 hours, Compusyn, read-out: metformin required to achieve 50% cell death/growth inhibition (IC50)
Protocol: (§5) Data is presented as heat map intensity corresponding to the level of expression. (B) HMCLs were treated with different doses of metformin for 72 hours and relative proliferation compared to vehicle control was calculated using MTT assay. Data is presented as IC50 for different cell lines and IC50 was calculated using Compusyn software (n=6). (C) & (D) HMCLs MM1S, RPMI, and U266 were treated with vehicle control (DMSO) or metformin 10 mM for 72 hours. (C) For apoptosis assay, cells were suspended in Annexin V buffer and stained with Annexin V for 30 minutes. Propidium iodide was added 10 minutes prior to data acquisition by flow cytometry. (D) For cell cycle assay, BrdU was added and incubated for 4 hours. Cells were fixed, permeabilized and stained with Anti-BrdU antibody for 30 minutes. 7AAD was added 10 minutes to samples before data acquisition by flow cytometry. The data were acquired on BD Fortessa and analyzed with flowjo V10.
(§6) IC50 was calculated using Compusyn software.

MM1S [4] = experiment: Annexin V / propidium iodide apoptosis assay, MM1S; assay type: cell-based, human; details: metformin 10 mM, 72 hours, Annexin V/PI
Protocol: as §1, §2

U266 [5] = experiment: Annexin V / propidium iodide apoptosis assay, U266; assay type: cell-based, human; details: U266, metformin 10 mM, 72 hours, Annexin V/PI
Protocol: as §1, §2

MM1S [6] = experiment: BrdU cell cycle assay, MM1S; assay type: cell-based, human; details: metformin 10 mM, 72 hours, from 34% without metformin
Protocol: as §1, §2

CD44 = experiment: Flow cytometry, cell surface CD44 in HMCLs; assay type: cell-based, human; details: RPMI, ANBL6, U266, MM1S, JJN3; metformin 10 mM, 72 hours
Protocol: as §3, §4

JJN3 = experiment: MTT assay, metformin in JJN3 myeloma cells; assay type: cell-based; details: Homo sapiens, JJN-3, JJN3, 72 hours, Compusyn, read-out: metformin required for 50% cell death/growth inhibition (IC50)
Protocol: as §5, §6

RPMI [7] = experiment: MTT assay, metformin in RPMI myeloma cells; assay type: cell-based; details: Homo sapiens, 72 hours, Compusyn, read-out: metformin required to achieve 50% cell death/growth inhibition (IC50)
Protocol: as §5, §6

[8] = test system: JJN3 engineered to over-express IL-6Rα; experiment: MTT assay in JJN3 cells over-expressing IL-6Rα; assay type: cell-based, human; details: n=6
Protocol: Ten different HMCLs were treated with metformin (0, 1 mM, 5 mM, 10 mM, 20 mM, 40 mM, and 80 mM) for 72 hours. The total numbers of live cells (metabolically active) were estimated using MTT assay. Relative proliferation was calculated by normalizing absorbance value with that obtained for vehicle control. IC50 was calculated using Compusyn software. […] (D) JJN3 IL-6Rα over-expressing cells were created using IL-6R cDNA expressing vector. Increased expression of IL-6Rα was confirmed by flow cytometry. (E) The sensitivity to metformin (IC50) was calculated using the MTT assay for cells transduced with the shRNA scrambled control or IL-6Rα KDs (n=6). […] (F) Metformin IC50 was calculated using MTT assay for JJN3 control and IL-6Rα over-expresser (n=6).
(3-(4,5-Dimethylthiazol-2-5-Diphenyltetrazolium Bromide (MTT) (ThermoFisher Scientific, MA, USA) was dissolved in PBS to make 12 mM stock solution. Cells were seeded at 10,000 cells in 50 μL complete medium. Drugs, cytokines and antibodies were added at indicated doses in 50 μL complete medium. HMCLs were incubated for 72 hours while primary myeloma cells were incubated for 48 hours in presence of vehicle control, metformin (1 mM, 5 mM, 10 mM, 20 mM, 40 mM and 80 mM). MTT (10 μL) was added to each well and incubated for an additional 2 hours. Lysis buffer (100 μL) was added to each well and absorbance was read at 570 nm. […]

RPMI IL-6Rα knock-downs = experiment: MTT assay in RPMI IL-6Rα knock-down cells; assay type: cell-based, human; details: n=6
Protocol: as §6
pGFP-C-shLenti vectors (4 shRNA targeting IL-6Rα and 1 scramble control) were purchased from Origene. Lentiviral particles were generated in HEK293T cells using pMD2.G (Addgene) and psPAX2 (Addgene). HMCLs were transduced with lentiviral vector particles in the presence of Polybrene (Millipore). Stable cell lines were generated after selecting for GFP positive cells with flow sorting and treatment with puromycin. Decreased expression of IL-6Rα compared to scrambled control was confirmed with qPCR and flow cytometer.

[9] = test system: IL-6 induced CRP production from hepatocytes (Hep3B); details: metformin 10 mM pre-treatment 72 hours, IL-6 50 ng/ml, 48 hours
RPMI [10] = experiment: BrdU cell cycle assay, RPMI; assay type: cell-based, human; details: metformin 10 mM, 72 hours, from 53% without metformin
Protocol: as §1, §2

IL-6Rα [11] = experiment: Flow cytometry, IL-6Rα on Hep3B hepatocytes; assay type: cell-based, human; details: metformin 10 mM, 72 hours
Protocol: Human hepatocellular carcinoma cell line Hep3B was purchased from ATCC. Cells were maintained in DMEM supplemented with 10% FBS and 100 U/mL penicillin and 100 μg/mL streptomycin.
as §4, with “Fortessa. Data were analyzed using flowJo vs10.4.2 (Flowjo LLC, USA).” for “Fortessa.”

IL-6Rα mRNA = experiment: IL-6Rα mRNA, qPCR TaqMan assay; assay type: cell-based, human; details: RPMI and ANBL6, metformin 10 mM, 72 hours
Protocol: as §3

ALMC1 and ALMC2 = experiment: MTT assay in primary amyloidosis (AL) cell lines; assay type: cell-based; details: ALMC2 high, ALMC1 low IL-6Rα expresser
Protocol: (3-(4,5-Dimethylthiazol-2-5-Diphenyltetrazolium Bromide (MTT) (Thermo Fisher Scientific, MA, USA) was dissolved in PBS to make 12 mM stock solution. Cells were seeded at 10,000 cells in 50 μl complete medium. Drugs, cytokines and antibodies were added at indicated doses in 50 μl complete medium. Cells were incubated for 72 hours for HMCLs and 48 hours for primary myeloma cells in presence of vehicle control, or metformin (1 mM, 5 mM, 10 mM, 20 mM, 40 mM, and 80 mM). MTT (10 μl) was added to each well and incubated for an additional 2 hours. Lysis buffer (100 μl) was added to each well and absorbance was read at 570 nm.

IL-6Rα [12] = experiment: Flow cytometry, cell surface IL-6Rα in HMCLs; assay type: cell-based, human; details: RPMI, ANBL6, U266, MM1S, JJN3; metformin 10 mM, 72 hours
Protocol: as §3, §4

RPMI [13] = experiment: Annexin V / propidium iodide apoptosis assay, RPMI; assay type: cell-based, human; details: metformin 10 mM, 72 hours, Annexin V/PI
Protocol: as §1, §2

In the case of `[H]/N=C(/N)N/C(=N/[H])NCCc1ccccc1` [Phenformin], the “Phenformin IC50 versus IL-6Rα expression” value ([1]; MTT IC50 vs flow cytometry) is reported as “strongly negatively correlated”.
With `CN(C)C(=N)N=C(N)N` [metformin] the “S phase fraction after metformin treatment” value (“S phase fraction” below) (U266 [2]) was 20%, the “soluble IL-6Rα in media” value (soluble IL-6Rα) was “decrease” and the “survival/proliferation of primary myeloma cells” value (primary myeloma cells) was “decreased survival/proliferation”. For the same compound, the “cell surface expression of IL-6Rα on primary myeloma cells” value (IL-6Rα [3]) was “decreased cell surface expression of IL-6Rα”, the IC50 (KMS12PE) was < 10 mM and the “percentage of live cells after metformin treatment” value (“percentage of live cells” below) (MM1S [4]) was 76%. For the same compound, the “percentage of live cells” value (U266 [5]) was 67%, the “survival/growth of multiple myeloma cells” value ([1]; 72 hours, MTT, variable levels of efficacy) was “inhibited survival/growth” and the “S phase fraction” value (MM1S [6]) was 23%. The CD44 expression (CD44) was “no significant change”, the IC50 (JJN3) was > 30 mM and the IC50 (RPMI [7]) was < 10 mM. For the same compound, the “IC50 for metformin in JJN3 over-expressing IL-6Rα compared to wild type JJN3” value [8] was “significantly decreased”, the “IC50 for metformin in RPMI IL-6Rα knock-downs compared to scramble control” value (RPMI IL-6Rα knock-downs) was “significantly increased” and the “IL-6 induced CRP production from hepatocytes” value [9] was “significantly inhibited”. The “S phase fraction” value (RPMI [10]) was 29%, the “IL-6Rα expression on hepatocytes” value (IL-6Rα [11]) was “expression of the receptor decreased” and the “IL-6Rα mRNA level (transcription)” value (IL-6Rα mRNA) was “decreased the level of IL-6Rα transcription”. For the same compound, the “Metformin IC50, ALMC2 compared to ALMC1” value (ALMC1 and ALMC2) was “lower for ALMC2 compared to ALMC1”, the “cell surface expression of IL-6Rα” value (IL-6Rα [12]) was “significantly and consistently reduced” and the “percentage of live cells” value (RPMI [13]) was 59%.

Reference: patent US11357745B2, “Methods and materials for treating cytokine release syndrome” (Mayo Foundation for Medical Education and Research, priority 2018, dated 2022)
